Assay results as given in patent US10435399B2, “HDAC6 inhibitory heterocyclic compound” (TAKEDA PHARMACEUTICAL COMPANY LIMITED, priority 2017, dated 2019).

biological target: T1, HDAC6 enzyme (Homo sapiens, UniProt Q9UBN7); experiment: HDAC6 enzyme inhibitory activity (HDAC-Glo I/II Assay kit); format: biochemical; details: 10 μM; wells without enzyme = 100% inhibition; read-out: HDAC6 inhibitory rate (%) (10 μM)
T1 construct: transducing full length HDAC6 gene into Sf-9 insect cells; GST; purchased SignalChem; host or cells: Sf-9 insect cells
T1 sequence (Q9UBN7 1-1215): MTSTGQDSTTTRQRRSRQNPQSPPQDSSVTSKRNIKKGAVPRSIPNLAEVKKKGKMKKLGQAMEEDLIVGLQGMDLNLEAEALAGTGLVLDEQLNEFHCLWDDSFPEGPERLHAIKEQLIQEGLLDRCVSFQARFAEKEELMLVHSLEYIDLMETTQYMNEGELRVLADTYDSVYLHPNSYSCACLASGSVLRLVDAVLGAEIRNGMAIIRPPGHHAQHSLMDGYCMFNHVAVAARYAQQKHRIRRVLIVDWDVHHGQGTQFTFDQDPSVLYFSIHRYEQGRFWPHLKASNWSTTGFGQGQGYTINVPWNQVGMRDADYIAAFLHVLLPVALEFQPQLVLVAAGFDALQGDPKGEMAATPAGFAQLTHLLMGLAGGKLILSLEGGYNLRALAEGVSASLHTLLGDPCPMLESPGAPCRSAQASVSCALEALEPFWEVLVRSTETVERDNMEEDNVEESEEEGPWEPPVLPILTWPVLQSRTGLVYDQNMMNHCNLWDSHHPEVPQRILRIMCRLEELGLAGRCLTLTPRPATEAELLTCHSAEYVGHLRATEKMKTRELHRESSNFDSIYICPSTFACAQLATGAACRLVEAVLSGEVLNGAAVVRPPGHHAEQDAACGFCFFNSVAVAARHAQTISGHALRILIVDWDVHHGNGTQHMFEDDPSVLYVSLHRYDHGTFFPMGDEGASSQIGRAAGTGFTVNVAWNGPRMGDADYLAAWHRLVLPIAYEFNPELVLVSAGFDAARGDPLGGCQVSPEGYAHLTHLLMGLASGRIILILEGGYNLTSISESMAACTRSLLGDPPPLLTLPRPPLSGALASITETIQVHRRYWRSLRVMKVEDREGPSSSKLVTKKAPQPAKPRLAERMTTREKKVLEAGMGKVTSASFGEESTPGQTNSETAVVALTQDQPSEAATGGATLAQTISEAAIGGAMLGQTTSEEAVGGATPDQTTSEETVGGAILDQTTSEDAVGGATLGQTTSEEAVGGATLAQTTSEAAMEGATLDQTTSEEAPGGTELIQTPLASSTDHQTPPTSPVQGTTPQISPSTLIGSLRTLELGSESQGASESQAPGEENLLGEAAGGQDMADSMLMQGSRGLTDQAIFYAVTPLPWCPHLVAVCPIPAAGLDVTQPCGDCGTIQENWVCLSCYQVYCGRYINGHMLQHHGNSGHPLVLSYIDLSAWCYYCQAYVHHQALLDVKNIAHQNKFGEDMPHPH
How it was run: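 Test compound is preincubated 60 min at RT with full-length insect-cell HDAC6 in Tris-HCl pH 7.5 with 135 mM NaCl and 1 mM MgCl2. A 20 min room-temperature HDAC-Glo reaction follows, with luminescent read-out.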

Row | Structure (SMILES) | inhibition at 10 µM
1 | O=C1c2cc(-c3nnc(C(F)F)o3)ccc2CN1C[C@H]1COCCN1 [Example 36, 6-(5-(difluoromethyl)-1,3,4-oxadiazol-2-yl)-2-((3S)-morpholin-3-ylmethyl)isoindolin-1-one] | 85%
2 | O=C1CCCN1c1ccccc1N1Cc2ccc(-c3nnc(C(F)F)o3)cc2C1=O [Example 37, 6-(5-(difluoromethyl)-1,3,4-oxadiazol-2-yl)-2-(2-(2-oxopyrrolidin-1-yl)phenyl)isoindolin-1-one] | 99%
3 | CC(F)(F)C(=O)N[C@@H]1CCCC[C@H]1N1Cc2ccc(-c3nnc(C(F)F)o3)cc2C1=O [Example 40, N-((1R,2R)-2-(6-(5-(difluoromethyl)-1,3,4-oxadiazol-2-yl)-1-oxo-1,3-dihydro-2H-isoindol-2-yl)cyclohexyl)-2,2-difluoropropanamide] | 100%
4 | O=C1c2cc(-c3nnc(C(F)F)o3)ccc2CN1C[C@H]1CCCCN1S(=O)(=O)C1CC1 [Example 41, 2-(((2R)-1-(cyclopropylsulfonyl)piperidin-2-yl)methyl)-6-(5-(difluoromethyl)-1,3,4-oxadiazol-2-yl)isoindolin-1-one] | 98%
5 | CC(C)OC(=O)N1CCCC[C@@H]1CN1Cc2ccc(-c3nnc(C(F)F)o3)cc2C1=O [Example 43, isopropyl (2R)-2-((6-(5-(difluoromethyl)-1,3,4-oxadiazol-2-yl)-1-oxo-1,3-dihydro-2H-isoindol-2-yl)methyl)piperidine-1-carboxylate] | 96%
6 | O=C1c2cc(-c3nnc(C(F)F)o3)ccc2CN1C[C@H]1COCCN1S(=O)(=O)C1CC1 [Example 44, 2-(((3S)-4-(cyclopropylsulfonyl)morpholin-3-yl)methyl)-6-(5-(difluoromethyl)-1,3,4-oxadiazol-2-yl)isoindolin-1-one] | 100%
7 | O=C1c2cc(-c3nnc(C(F)F)o3)ccc2CN1C[C@H]1COCCN1C(=O)C1CC1 [Example 45, 2-(((3S)-4-(cyclopropylcarbonyl)morpholin-3-yl)methyl)-6-(5-(difluoromethyl)-1,3,4-oxadiazol-2-yl)isoindolin-1-one] | 99%
8 | O=C1c2cc(-c3nnc(C(F)F)o3)ccc2CN1C[C@H]1COCCN1C(=O)C1CCCC1 [Example 47] | 99%
9 | COC(=O)N1CCOC[C@@H]1CN1Cc2ccc(-c3nnc(C(F)F)o3)cc2C1=O [Example 48, methyl (3S)-3-((6-(5-(difluoromethyl)-1,3,4-oxadiazol-2-yl)-1-oxo-1,3-dihydro-2H-isoindol-2-yl)methyl)morpholine-4-carboxylate] | 98%
10 | CCCC(=O)N[C@@H]1CCCC[C@H]1N1Cc2ccc(-c3nnc(C(F)F)o3)cc2C1=O [Example 50, N-((1R,2R)-2-(6-(5-(difluoromethyl)-1,3,4-oxadiazol-2-yl)-1-oxo-1,3-dihydro-2H-isoindol-2-yl)cyclohexyl)butanamide] | 101%
11 | CCOC(=O)N[C@@H]1CCCC[C@H]1N1Cc2ccc(-c3nnc(C(F)F)o3)cc2C1=O [Example 52, ethyl ((1R,2R)-2-(6-(5-(difluoromethyl)-1,3,4-oxadiazol-2-yl)-1-oxo-1,3-dihydro-2H-isoindol-2-yl)cyclohexyl)carbamate] | 96%
12 | CCc1cc(CC)n([C@@H]2CCCC[C@H]2N2Cc3ccc(-c4nnc(C(F)F)o4)cc3C2=O)n1 [Example 54, 2-((1R,2R)-2-(3,5-diethyl-1H-pyrazol-1-yl)cyclohexyl)-6-(5-(difluoromethyl)-1,3,4-oxadiazol-2-yl)isoindolin-1-one] | 98%
13 | O=C1c2cc(-c3nnc(C(F)F)o3)ccc2CN1[C@@H]1CCCC[C@H]1n1cc2ccccc2n1 [Example 55, 6-(5-(difluoromethyl)-1,3,4-oxadiazol-2-yl)-2-((1R,2R)-2-(2H-indazol-2-yl)cyclohexyl)isoindolin-1-one] | 101%
14 | O=C1c2cc(-c3nnc(C(F)F)o3)ccc2CN1Cc1ccccc1 [Example 58, 2-benzyl-6-(5-(difluoromethyl)-1,3,4-oxadiazol-2-yl)isoindolin-1-one] | 98%

Now from value to molecule:

Row | inhibition at 10 µM | Structure (SMILES)
15 | 98% | CC(C)(C)OC(=O)N1CCCC[C@@H]1CN1Cc2ccc(-c3nnc(C(F)F)o3)cc2C1=O [Example 34, tert-butyl (2R)-2-((6-(5-(difluoromethyl)-1,3,4-oxadiazol-2-yl)-1-oxo-1,3-dihydro-2H-isoindol-2-yl)methyl)piperidine-1-carboxylate]
16 | 97% | CC(C)(C)OC(=O)N1CCOC[C@@H]1CN1Cc2ccc(-c3nnc(C(F)F)o3)cc2C1=O [Example 35, tert-butyl (3S)-3-((6-(5-(difluoromethyl)-1,3,4-oxadiazol-2-yl)-1-oxo-1,3-dihydro-2H-isoindol-2-yl)methyl)morpholine-4-carboxylate]
17 | 91% | N[C@@H]1CCCC[C@H]1N1Cc2ccc(-c3nnc(C(F)F)o3)cc2C1=O [Example 38, 2-((1R,2R)-2-aminocyclohexyl)-6-(5-(difluoromethyl)-1,3,4-oxadiazol-2-yl)isoindolin-1-one]
18 | 96% | CCCCC(=O)N[C@@H]1CCCC[C@H]1N1Cc2ccc(-c3nnc(C(F)F)o3)cc2C1=O [Example 39, N-((1R,2R)-2-(6-(5-(difluoromethyl)-1,3,4-oxadiazol-2-yl)-1-oxo-1,3-dihydro-2H-isoindol-2-yl)cyclohexyl)pentanamide]
19 | 98% | O=C1c2cc(-c3nnc(C(F)F)o3)ccc2CN1C[C@H]1CCCCN1C(=O)C1CC1 [Example 42, 2-(((2R)-1-(cyclopropylcarbonyl)piperidin-2-yl)methyl)-6-(5-(difluoromethyl)-1,3,4-oxadiazol-2-yl)isoindolin-1-one]
20 | 97% | CC(C)OC(=O)N1CCOC[C@@H]1CN1Cc2ccc(-c3nnc(C(F)F)o3)cc2C1=O [Example 46, isopropyl (3S)-3-((6-(5-(difluoromethyl)-1,3,4-oxadiazol-2-yl)-1-oxo-1,3-dihydro-2H-isoindol-2-yl)methyl)morpholine-4-carboxylate]
21 | 99% | Cc1ccc(S(=O)(=O)N2CCOC[C@@H]2CN2Cc3ccc(-c4nnc(C(F)F)o4)cc3C2=O)cc1 [Example 49, 6-(5-(difluoromethyl)-1,3,4-oxadiazol-2-yl)-2-(((3S)-4-((4-methylphenyl)sulfonyl)morpholin-3-yl)methyl)isoindolin-1-one]
22 | 99% | CCCCCC(=O)N[C@@H]1CCCC[C@H]1N1Cc2ccc(-c3nnc(C(F)F)o3)cc2C1=O [Example 51, N-((1R,2R)-2-(6-(5-(difluoromethyl)-1,3,4-oxadiazol-2-yl)-1-oxo-1,3-dihydro-2H-isoindol-2-yl)cyclohexyl)hexanamide]
23 | 98% | O=C1c2cc(-c3nnc(C(F)F)o3)ccc2CN1[C@@H]1CCCC[C@H]1N1CCC2(CC2)C1=O [Example 53, 6-(5-(difluoromethyl)-1,3,4-oxadiazol-2-yl)-2-((1R,2R)-2-(4-oxo-5-azaspiro[2.4]hept-5-yl)cyclohexyl)isoindolin-1-one]
24 | 92% | O=C1c2cc(-c3nnc(C(F)F)o3)ccc2CN1CC1CC1 [Example 56, 2-(cyclopropylmethyl)-6-(5-(difluoromethyl)-1,3,4-oxadiazol-2-yl)isoindolin-1-one]
25 | 94% | O=C1c2cc(-c3nnc(C(F)F)o3)ccc2CN1Cc1ccc(C(F)(F)F)cc1 [Example 59, 6-(5-(difluoromethyl)-1,3,4-oxadiazol-2-yl)-2-(4-(trifluoromethyl)benzyl)isoindolin-1-one]
26 | 96% | O=C1c2cc(-c3nnc(C(F)F)o3)ccc2CN1Cc1ccccn1 [Example 60, 6-(5-(difluoromethyl)-1,3,4-oxadiazol-2-yl)-2-(pyridin-2-ylmethyl)isoindolin-1-one]
27 | 99% | Cc1cc(C)n([C@@H]2CCCC[C@H]2N2Cc3ccc(-c4nnc(C(F)F)o4)cc3C2=O)n1 [Example 61, 6-(5-(difluoromethyl)-1,3,4-oxadiazol-2-yl)-2-((1R,2R)-2-(3,5-dimethyl-1H-pyrazol-1-yl)cyclohexyl)isoindolin-1-one]
